Experimental data reported in US12398097B2, “WDR5-MYC inhibitors” (Vanderbilt University, priority 2019, dated 2025).

biological target: WDR5 (Homo sapiens, UniProt P61964); assay: Competition-based fluorescence polarization anisotropy assay; settings: binding to WDR5; displacement of FITC-labeled small molecule probe (analogous to Example J2 or HCH-25) or peptide probe FITC-AHx-SEEEIDVVSV; pH 6.0; Ki converted from IC50
In short: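 Ki values derive from displacement of either a fluorescent small-molecule probe or a FITC-peptide probe from WDR5, monitored by fluorescence polarization. Assay run at pH 6.0 in 200 mM phosphate with 300 mM NaCl, 0.5 mM TCEP and 0.1% Chaps.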

Structure (SMILES) | Ki [nM]
COC1CN(C(=O)c2cc(C3(C#N)CCC3)cc(NS(=O)(=O)c3cc(Br)ccc3O)c2O)C1 [Example J223, 5-Bromo-N-(5-(1-cyanocyclobutyl)-2-hydroxy-3-(3-methoxyazetidine-1-carbonyl)phenyl)-2-hydroxybenzenesulfonamide] | 430
N#CC1(c2cc(NS(=O)(=O)c3cc(Br)ccc3O)c(O)c(C(=O)N3CC(O)C3)c2)CCC1 [Example J224, 5-Bromo-N-(5-(1-cyanocyclobutyl)-2-hydroxy-3-(3-hydroxyazetidine-1-carbonyl)phenyl)-2-hydroxybenzenesulfonamide] | 290
N#CC1(c2cc(NS(=O)(=O)c3cc(Br)ccc3O)c(O)c(C(=O)NCCN3CCOCC3)c2)CCC1 [Example J225, 3-((5-Bromo-2-hydroxyphenyl)sulfonamido)-5-(1-cyanocyclobutyl)-2-hydroxy-N-(2-morpholinoethyl)benzamide] | 860
CN(C)CCNC(=O)c1cc(C2(C#N)CCC2)cc(NS(=O)(=O)c2cc(Br)ccc2O)c1O [Example J226, 3-((5-Bromo-2-hydroxyphenyl)sulfonamido)-5-(1-cyanocyclobutyl)-N-(2-(dimethylamino)ethyl)-2-hydroxybenzamide] | 1090
N#CC1(c2cc(NS(=O)(=O)c3cc(Br)ccc3O)c(O)c(C(=O)Nc3nc[nH]n3)c2)CCC1 [Example J227, 3-((5-Bromo-2-hydroxyphenyl)sulfonamido)-5-(1-cyanocyclobutyl)-2-hydroxy-N-(1H-1,2,4-triazol-3-yl)benzamide] | 50
N#CC1(c2cc(NS(=O)(=O)c3cc(Br)ccc3O)c(O)c(C(=O)NCCO)c2)CCC1 [Example J228, 3-((5-Bromo-2-hydroxyphenyl)sulfonamido)-5-(1-cyanocyclobutyl)-2-hydroxy-N-(2-hydroxyethyl)benzamide] | 370
N#CC1(c2cc(NS(=O)(=O)c3cc(Br)ccc3O)c(O)c(C(=O)NCC3CCCCO3)c2)CCC1 (stereo not drawn) [Example J229, 3-((5-Bromo-2-hydroxyphenyl)sulfonamido)-5-(1-cyanocyclobutyl)-2-hydroxy-N-((tetrahydro-2H-pyran-2-yl)methyl)benzamide] | 850
N#CC1(c2cc(NS(=O)(=O)c3cc(Br)ccc3O)c(O)c(C(=O)NCc3ccc(=O)[nH]c3)c2)CCC1 [Example J230, 3-((5-Bromo-2-hydroxyphenyl)sulfonamido)-5-(1-cyanocyclobutyl)-2-hydroxy-N-((6-oxo-1,6-dihydropyridin-3-yl)methyl)benzamide] | 630
N#CC1(c2cc(NS(=O)(=O)c3cc(Br)ccc3O)c(O)c(C(=O)O)c2)CCCCC1 [Example J231, 3-((5-Bromo-2-hydroxyphenyl)sulfonamido)-5-(1-cyanocyclohexyl)-2-hydroxybenzoic acid] | 20
N#CC1(c2cc(NS(=O)(=O)c3cc(Br)ccc3O)c(O)c(C(N)=O)c2)CCCCC1 [Example J232, 3-((5-Bromo-2-hydroxyphenyl)sulfonamido)-5-(l-cyanocyclohexyl)-2-hydroxybenzamide] | 220
CNC(=O)c1cc(C2(C#N)CCCCC2)cc(NS(=O)(=O)c2cc(Br)ccc2O)c1O [Example J233, 3-((5-Bromo-2-hydroxyphenyl)sulfonamido)-5-(1-cyanocyclohexyl)-2-hydroxy-N-methylbenzamide] | 100
N#CC1(c2cc(NS(=O)(=O)c3cc(Br)cc(Cl)c3O)c(O)c(C(=O)O)c2)CCCCC1 [Example J234, 3-((5-Bromo-3-chloro-2-hydroxyphenyl)sulfonamido)-5-(1-cyanocyclohexyl)-2-hydroxybenzoic acid] | 20
N#CC1(c2cc(NS(=O)(=O)c3cc(Br)cc(Cl)c3O)c(O)c(C(N)=O)c2)CCCCC1 [Example J235, 3-((5-Bromo-3-chloro-2-hydroxyphenyl)sulfonamido)-5-(1-cyanocyclohexyl)-2-hydroxybenzamide] | 80
CNC(=O)c1cc(C2(C#N)CCCCC2)cc(NS(=O)(=O)c2cc(Br)cc(Cl)c2O)c1O [Example J236, 3-((5-Bromo-3-chloro-2-hydroxyphenyl)sulfonamido)-5-(1-cyanocyclohexyl)-2-hydroxy-N-methylbenzamide] | 240
O=S(=O)(Nc1cc(C2CC2)cc(S(=O)(=O)C2CCCO2)c1)c1cc(Br)ccc1O (stereo not drawn) [Example S15-2] | 8620
CS(=O)(=O)c1cc(Cl)cc(NS(=O)(=O)c2cc(Br)cc(Cl)c2O)c1O [Example S16-2, 5-Bromo-3-chloro-N-(5-chloro-2-hydroxy-3-(methylsulfonyl)phenyl)-2-hydroxybenzenesulfonamide] | 20
CC(C)S(=O)(=O)c1cc(Cl)cc(NS(=O)(=O)c2cc(Br)cc(Cl)c2O)c1O [Example S23.1, 5-Bromo-3-chloro-N-(5-chloro-2-hydroxy-3-(isopropylsulfonyl)phenyl)-2-hydroxybenzenesulfonamide] | 130
CC(C)[S+]([O-])c1cc(Cl)cc(NS(=O)(=O)c2cc(Br)cc(Cl)c2O)c1O (stereo not drawn) [Example S23.2, 5-Bromo-3-chloro-N-(5-chloro-2-hydroxy-3-(isopropylsulfinyl)phenyl)-2-hydroxybenzenesulfonamide] | 330

Results, then the molecule that gave them:

Ki [nM] | Structure (SMILES)
500 | CS(=O)(=O)c1cc(Br)cc(NS(=O)(=O)c2cc(Br)cc(OC(F)(F)F)c2O)c1 [Example S3, 5-Bromo-N-(3-bromo-5-(methylsulfonyl)phenyl)-2-hydroxy-3-(trifluoromethoxy)benzenesulfonamide]
850 | CS(=O)(=O)c1cc(Cl)cc(NS(=O)(=O)c2cc(Br)cc(OC(F)(F)F)c2O)c1 [Example S4, 5-Bromo-N-(3-chloro-5-(methylsulfonyl)phenyl)-2-hydroxy-3-(trifluoromethoxy)benzenesulfonamide]
610 | CCc1cc(Br)cc(S(=O)(=O)Nc2cc(Cl)cc(S(C)(=O)=O)c2)c1O [Example S5, 5-Bromo-N-(3-chloro-5-(methylsulfonyl)phenyl)-3-ethyl-2-hydroxybenzenesulfonamide]
1230 | CS(=O)(=O)c1cc(Cl)cc(NS(=O)(=O)c2cc(Br)ccc2O)c1 [Example S6, 5-Bromo-N-(3-chloro-5-(methylsulfonyl)phenyl)-2-hydroxybenzenesulfonamide]
170 | CS(=O)(=O)c1cc(Cl)cc(NS(=O)(=O)c2cc(Br)cc(Cl)c2O)c1 [Example S8, 5-Bromo-3-chloro-N-(3-chloro-5-(methylsulfonyl)phenyl)-2-hydroxybenzenesulfonamide]
1030 | CS(=O)(=O)c1cc(NS(=O)(=O)c2cc(Br)ccc2O)cc(C2CC2)c1 [Example S9, 5-Bromo-N-(3-cyclopropyl-5-(methylsulfonyl)phenyl)-2-hydroxybenzenesulfonamide]
170 | CS(=O)(=O)c1cc(NS(=O)(=O)c2cc(Br)cc(Cl)c2O)cc(C2CC2)c1 [Example S10, 5-Bromo-3-chloro-N-(3-cyclopropyl-5-(methylsulfonyl)phenyl)-2-hydroxybenzenesulfonamide]
820 | CS(=O)(=O)c1cc(NS(=O)(=O)c2cc(Br)ccc2O)cc(OC(F)(F)F)c1 [Example S11, 5-Bromo-2-hydroxy-N-(3-(methylsulfonyl)-5-(trifluoromethoxy)phenyl)benzenesulfonamide]
70 | CS(=O)(=O)c1cc(NS(=O)(=O)c2cc(Br)cc(Cl)c2O)cc(OC(F)(F)F)c1 [Example S12, 5-Bromo-3-chloro-2-hydroxy-N-(3-(methylsulfonyl)-5-(trifluoromethoxy)phenyl)benzenesulfonamide]
420 | CS(=O)(=O)c1cc(NS(=O)(=O)c2cc(Br)ccc2O)cc(S(F)(F)(F)(F)F)c1 [Example S13, 5-Bromo-2-hydroxy-N-(3-(methylsulfonyl)-5-(pentafluoro-λ^6-sulfaneyl)phenyl)benzenesulfonamide]
30 | CS(=O)(=O)c1cc(NS(=O)(=O)c2cc(Br)cc(Cl)c2O)cc(S(F)(F)(F)(F)F)c1 [Example S14, 5-Bromo-3-chloro-2-hydroxy-N-(3-(methylsulfonyl)-5-(pentafluoro-λ^6-sulfaneyl)phenyl)benzenesulfonamide]
200 | O=S(=O)(Nc1cc(C2CC2)cc(S(=O)(=O)C2CCCO2)c1)c1cc(Br)cc(Cl)c1O (stereo not drawn) [Example S16, 5-Bromo-3-chloro-N-(3-cyclopropyl-5-((tetrahydrofuran-2-yl)sulfonyl)phenyl)-2-hydroxybenzenesulfonamide]
90 | CS(=O)(=O)c1cc(Cl)cc(NS(=O)(=O)c2cc(Br)ccc2O)c1O [Example S17, 5-Bromo-N-(5-chloro-2-hydroxy-3-(methylsulfonyl)phenyl)-2-hydroxybenzenesulfonamide]
30 | CS(=O)(=O)c1cc(S(F)(F)(F)(F)F)cc(NS(=O)(=O)c2cc(Br)cc(Cl)c2O)c1O [Example S18, 5-Bromo-3-chloro-2-hydroxy-N-(2-hydroxy-3-(methylsulfonyl)-5-(pentafluoro-λ^6-sulfaneyl)phenyl)benzenesulfonamide]
100 | CS(=O)(=O)c1cc(S(F)(F)(F)(F)F)cc(NS(=O)(=O)c2cc(Br)ccc2O)c1O [Example S19, 5-Bromo-2-hydroxy-N-(2-hydroxy-3-(methylsulfonyl)-5-(pentafluoro-λ^6-sulfaneyl)phenyl)benzenesulfonamide]
4300 | CS(=O)(=O)c1cc(S(F)(F)(F)(F)F)cc(NS(=O)(=O)c2ccc(Br)cc2O)c1O [Example S20, 4-Bromo-2-hydroxy-N-(2-hydroxy-3-(methylsulfonyl)-5-(pentafluoro-λ6-sulfaneyl)phenyl)benzenesulfonamide]
240 | CCS(=O)(=O)c1cc(Cl)cc(NS(=O)(=O)c2cc(Br)cc(Cl)c2O)c1O [Example S21, 5-Bromo-3-Chloro-N-(5-chloro-3-(ethylsulfonyl)-2-hydroxyphenyl)-2-hydroxybenzenesulfonamide]
250 | CCS(=O)(=O)c1cc(Cl)cc(NS(=O)(=O)c2cc(Br)ccc2O)c1O [Example S22, 5-Bromo-N-(5-chloro-3-(ethylsulfonyl)-2-hydroxyphenyl)-2-hydroxybenzenesulfonamide]
